Results as given in US7419954B2, “Staphylococcus peptides for bacterial interference” (priority 1998, dated 2008).
Where a SMILES comes first, the peptide text is derived from it. Bridges are numbered along the chain shown (N, C = ends).

What was measured:
[1] = biological target: AgrC receptor of group I S. aureus (Staphylococcus aureus); experiment: cell-based or functional assay
[2] = biological target: AgrC receptor of group II S. aureus (Staphylococcus aureus); experiment: cell-based or functional assay
[3] = biological target: AgrC receptor of group III S. aureus (Staphylococcus aureus); experiment: cell-based or functional assay
[4] = biological target: agr response in group I (RN6390B) S. aureus; experiment: agr P3-blaZ β-lactamase reporter assay, activation of the agr response; assay type: cell-based; conditions: early exponential phase, 55 minutes
Procedure: (§1) The synthetic AgrD peptides shown in Table 1 include the following: Agr D1 Thiolactone. […] (SEQ ID NO: 9): Agr D2 Thiolactone, […] (SEQ lID NO: 1): Agr D2 Linear Thioester, […] (SEQ ID NO: 1): Agr D2 Linear Free Acid […] (SEQ ID NO: 1); Agr D2 Lactone, […] (SEQ ID NO: 1); and Agr D2 Lactam, GVNAXSSLF (SEQ ID NO: 1).
(§2) Biological activity of synthetic AgrD peptides. Biological assays were performed using groups I (RN6390B), II (SA502A) and III (RN8463) S. aureus strains (Ji et al. (1997) supra), each containing an agr P3-blaZ fusion plasmid (Novick et al. (1995) supra). Cells were grown in CYGP medium at 37° C. to either early exponential phase for agr activation studies, or midexponential phase for agr inhibition studies. To the cultured cells were then added one of the following: buffer solution (negative control), the appropriate cell supernatant containing the natural AgrD peptide as prepared as in (Ji, G., et al., 1995) (positive control) or the synthetic peptide solution in 20 mM tris.HCl buffer at pH 6.0.

[5] = biological target: agr response in group II (SA502A) S. aureus; experiment: as above; assay type: cell-based; conditions: early exponential phase, 55 minutes
Procedure: as §1, §2

[6] = biological target: agr response in group III (RN8463) S. aureus; experiment: as above; assay type: cell-based; conditions: early exponential phase, 55 minutes
Procedure: as §1, §2

[7] = system: agr response in group I (RN6390B) S. aureus; experiment: agr P3-blaZ β-lactamase reporter assay, inhibition of the agr response; assay type: cell-based; conditions: for IC50 / IC50 Inhibition, S. aureus Group I: group I (RN6390B), midexponential phase, 80 minutes
Procedure: as §1, §2

[8] = biological target: agr response in group II (SA502A) S. aureus; experiment: as above; assay type: cell-based; conditions: for inhibition of self (own group): own S. aureus group (group II)
Procedure: as §1, §2

[9] = system: agr response in group III (RN8463) S. aureus; experiment: as above; assay type: cell-based
Procedure: as §1, §2

[10] = system: agr response in groups I, II and III S. aureus strains; experiment: agr P3-blaZ β-lactamase reporter assay, activation/inhibition in the three S. aureus strains; assay type: cell-based
Procedure: as §1, §2

[11] = Determination of AIP-II half-life: incubation in PBS or rabbit serum, then dose-response activation of β-lactamase induction; assay type: cell-based, S. aureus; conditions: rabbit, rabbit serum; from EC50 shift PBS vs serum; given as in vivo
Procedure: (§3) Determination of AIP-II half-life. To approximate the active lifetime of AIP, a synthetic version of AIP-IL (Lyon et al. (2002) Biochemistry 41, 10095-104) was incubated in PBS or rabbit serum at 37° C. for 4 hours. The sample was diluted and a dose-response assay for activation of β-lactamase induction of strain RN7206 carrying the agrCA-II agrp3-blaZ reporter fusion was performed as previously described (Lyon et al. (2002) supra; Wright III et al. (2004) Proc. Natl. Acad. Sci., USA).

[12] = system: strain RN7206 carrying the agrCA-II agrp3-blaZ reporter fusion; experiment: as above; assay type: cell-based, S. aureus; conditions: normal rabbit serum
Procedure: as §3

[13] = system: agr-I bacteria (RN6734) carrying agrp3-lux or blaZp-lux; experiment: Murine subcutaneous abscess model with in vivo bioluminescence imaging; parameters: species or system SKH-1 mice; conditions: mice, single dose 10 μg co-injected with agr-I bacteria
Procedure: Murine subcutaneous abscess model. Groups (n=3 per variable examined) of hairless, euthymic SKH-1 (ISL) mice (Charles River) were used in the murine subcutaneous abscess model (Bunce et al. (1992) Infect. Immun. 60, 2636-40). In this model, staphylococci are injected subcutaneously with cytodex beads, and an abscess develops at the site of injection 2-3 days later, then sloughs and drains. The organisms grow rapidly initially, after which the population levels out and remains constant thereafter. Polymorphonuclear leuykocytes (PMNs) are attracted to the developing lesion by bacterial products and by pro-inflammatory cytokines, reaching maximum numbers by about 6 hours.
Bacteria were thawed, diluted to appropriate cell density, mixed with sterile cytodex beads (Sigma) and injected subcutaneously in a volume of 0.1 ml in the flank region. […] Mice were fed a standard diet ad libitum and monitored daily for signs of distress. Colony forming units (CFU) per abscess were determined by plating serial dilutions of excised lesions homogenized in PBS plus 0.5% Triton X-100.
Measurement of bioluminescence in vivo. […] For the graphs, the signal collected on a portion of the CCD array corresponding to the area of injected bacteria was determined in photons/sec/cm^2/sr, referred to as relative light units (RLU), and plotted vs. time after initiation of infection.

[14] = group II (SA502A), midexponential phase, 80 minutes
[15] = group III (RN8463), midexponential phase, 80 minutes

## Agr D2 Thiolactone (peptide)
[1]
  IC50 Inhibition (nM), agr P3-blaZ beta-lactamase reporter: 3.4 nM
[2]
  ED50 Activation (nM), agr P3-blaZ beta-lactamase reporter: 3.6 nM
[3]
  IC50 Inhibition (nM), agr P3-blaZ beta-lactamase reporter: 3.1 nM

## GVNAXSSLF (SEQ ID NO: 1) [Agr D2 Lactam]
[4]
  ED50 Activation, S. aureus Group I: No Activation
[5]
  ED50 Activation, S. aureus Group II: No Activation
[6]
  ED50 Activation, S. aureus Group III: No Activation
[7]
  inhibition of the agr response in group I S. aureus strains: able to inhibit
  IC50: 0.21 nM
[8]; [14]
  IC50 Inhibition, S. aureus Group II: No Inhibition
[8]
  inhibition of self (own group): do not inhibit self
[9]
  inhibition of the agr response in group III S. aureus strains: able to inhibit
[10]
  activation of the agr response in any of the three S. aureus strains: unable to activate

## GVNASSSLF [Agr D2 Linear Free Acid, GVNASSSLF (SEQ ID NO: 1)]
[4]
  ED50 Activation, S. aureus Group I: No Activation
[5]
  ED50 Activation, S. aureus Group II: No Activation
[6]
  ED50 Activation, S. aureus Group III: No Activation
[7]
  IC50 Inhibition, S. aureus Group I: No Inhibition
[8]; [14]
  IC50 Inhibition, S. aureus Group II: No Inhibition
[9]; [15]
  IC50 Inhibition, S. aureus Group III: No Inhibition

## YSTCDFIM [Agr D1 Thiolactone, YSTCDFIM (SEQ ID NO: 9)]
[4]; read-out: ED50 Activation, S. aureus Group I
  EC50: 10.2 nM
[5]
  ED50 Activation, S. aureus Group II: No Activation
[6]
  ED50 Activation, S. aureus Group III: No Activation
[7]
  IC50 Inhibition, S. aureus Group I: No Inhibition
[8]; [14]
  IC50: 2.9 nM
[9]; [15]
  IC50: 3.2 nM

## GVNASSSLF (SEQ ID NO: 1) [Agr D2 Lactone]
[4]
  ED50 Activation, S. aureus Group I: No Activation
[5]
  ED50 Activation, S. aureus Group II: No Activation
[6]
  ED50 Activation, S. aureus Group III: No Activation
[7]
  inhibition of the agr response in group I S. aureus strains: able to inhibit
  IC50: 7.9 nM
[8]; [14]
  IC50 Inhibition, S. aureus Group II: No Inhibition
[8]
  inhibition of self (own group): do not inhibit self
[9]
  inhibition of the agr response in group III S. aureus strains: able to inhibit
[10]
  activation of the agr response in any of the three S. aureus strains: unable to activate

## CC(C)C[C@@H]1NC(=O)[C@H](CO)NC(=O)[C@H](CO)NC(=O)[C@@H](NC(=O)[C@H](C)NC(=O)[C@H](CC(N)=O)NC(=O)[C@@H](NC(=O)CN)C(C)C)CSC(=O)[C@H](Cc2ccccc2)NC1=O [Agr D2 Thiololactone, GVNACSSLF (SEQ lID NO: 1)] (H-GVNACSSLF; thioester 5-C)
[11]
  half-life: < 4 h
[12]
  in vitro lifetime: ~4 h
[13]
  effective biological lifetime of the peptide in vivo: about 3 hours

## Agr D2 Lactone (peptide)
[1]
  IC50 Inhibition (nM), agr P3-blaZ beta-lactamase reporter: 7.9 nM

## GVNAASSLF [Agr D2 Linear Thioester, GVNAASSLF (SEQ ID NO: 1)]
[4]
  ED50 Activation, S. aureus Group I: No Activation
[5]
  ED50 Activation, S. aureus Group II: No Activation
[6]
  ED50 Activation, S. aureus Group III: No Activation
[7]
  IC50 Inhibition, S. aureus Group I: No Inhibition
[8]; [14]
  IC50 Inhibition, S. aureus Group II: No Inhibition
[9]; [15]
  IC50 Inhibition, S. aureus Group III: No Inhibition
[10]; added to cultured cells at μM concentrations
  activation/inhibition of the agr response: unable to either activate or inhibit

## Agr D1 Thiolactone (peptide)
[1]
  ED50 Activation (nM), agr P3-blaZ beta-lactamase reporter: 10.2 nM
[2]
  IC50 Inhibition (nM), agr P3-blaZ beta-lactamase reporter: 2.9 nM
[3]
  IC50 Inhibition (nM), agr P3-blaZ beta-lactamase reporter: 3.2 nM

## Agr D2 Lactam (peptide)
[1]
  IC50 Inhibition (nM), agr P3-blaZ beta-lactamase reporter: 0.21 nM
